In ChEMBL document CHEMBL1201862, “PubChem BioAssay data set” (2004):
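Cultured in 96-well plates, cells were exposed to test compound for 48 hours across five concentrations. Abbreviation: GI50, concentration required for 50% inhibition of growth.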 Active and inactive are the calls of the source. No stated cut-off is given here; in the data, active = GI50 up to about 1.1 µM and inactive = higher.

Experiments:
Assay in all cases: inhibition of tumour cell growth, NCI panel, 48 h
[1] = tested on: A549
[2] = tested on: CAKI-1
[3] = tested on: COLO 205
[4] = tested on: HCT-15
[5] = tested on: HOP-62
[6] = tested on: HT-29
[7] = tested on: IGROV-1
[8] = tested on: MDA-MB-231
[9] = tested on: NCI-H226
[10] = tested on: NCI-H522
[11] = tested on: OVCAR-5
[12] = tested on: RPMI-8226
[13] = tested on: RXF 393
[14] = tested on: SK-MEL-5
[15] = tested on: SK-OV-3
[16] = tested on: SNB-19
[17] = tested on: TK-10
[18] = tested on: U-251
[19] = tested on: UACC-257
[20] = tested on: UACC-62

Row | SMILES | GI50 [1] | GI50 [2] | GI50 [3] | GI50 [4] [µM] | GI50 [5] | GI50 [6] | GI50 [7] | GI50 [8] | GI50 [9] | GI50 [10] | GI50 [11] | GI50 [12] | GI50 [13] | GI50 [14] | GI50 [15] | GI50 [16] | GI50 [17] | GI50 [18] | GI50 [19] | GI50 [20]
1 | N#CC(C#N)=NNc1ccc2cn[nH]c2c1 | > 100 µM (inactive) | 29.6 µM (inactive) | 25.6 µM (inactive) | 83.2 | > 100 µM (inactive) | 91.2 µM (inactive) | > 100 µM (inactive) | > 100 µM (inactive) | > 100 µM (inactive) | 12.2 µM (inactive) | > 100 µM (inactive) | 26.2 µM (inactive) | 26.6 µM (inactive) | 74.5 µM (inactive) | > 100 µM (inactive) | > 100 µM (inactive) | 26.7 µM (inactive) | > 100 µM (inactive) | 20.4 µM (inactive) | > 100 µM (inactive)
2 | O=c1c2ccccc2nc(-c2ccc(Cl)cc2)n1O | 29.4 µM (inactive) | 15.2 µM (inactive) | 34.6 µM (inactive) | 9.55 | 9.12 µM (inactive) | 45.7 µM (inactive) | 2.19 µM (inactive) | > 100 µM (inactive) | 15.5 µM (inactive) | 15.3 µM (inactive) | 47.4 µM (inactive) | 26.9 µM (inactive) | 26.7 µM (inactive) | 29.9 µM (inactive) | 28.2 µM (inactive) | 25.2 µM (inactive) | 21.1 µM (inactive) | 20.8 µM (inactive) | 24.9 µM (inactive) | 35.9 µM (inactive)
3 | COc1ccc(O[C@H](CO)C[C@@H]2COC(C)(C)O2)cc1 | > 100 µM (inactive) | > 100 µM (inactive) | > 100 µM (inactive) | > 100 | > 100 µM (inactive) | > 100 µM (inactive) | > 100 µM (inactive) | > 100 µM (inactive) | > 100 µM (inactive) | > 100 µM (inactive) | > 100 µM (inactive) | > 100 µM (inactive) | > 100 µM (inactive) | > 100 µM (inactive) | > 100 µM (inactive) | > 100 µM (inactive) | > 100 µM (inactive) | > 100 µM (inactive) | > 100 µM (inactive) | > 100 µM (inactive)
4 | CCOC(=O)[C@@H]1C2C(=C[C@H]3[C@H]1C(=O)N1CCCC[C@H]31)CCCN2C(=O)OCc1ccccc1 (stereo not given in full) | 36.1 µM (inactive) | 43.1 µM (inactive) | 23.9 µM (inactive) | 32.8 | 42.5 µM (inactive) | 30.3 µM (inactive) | 41.3 µM (inactive) | > 100 µM (inactive) | 70.5 µM (inactive) | 18.5 µM (inactive) | 76.4 µM (inactive) | 20.2 µM (inactive) | 47.8 µM (inactive) | 31.6 µM (inactive) | 94.8 µM (inactive) | > 100 µM (inactive) | 75.9 µM (inactive) | 43.6 µM (inactive) | 37.6 µM (inactive) | 17.4 µM (inactive)
5 | CN1C(=O)C23CC4=CC=CC(O)C4N2C(=O)C1(CO)SS3 (stereo not given) | 0.171 µM (active) | 0.308 µM (active) | 0.0524 µM (active) | 0.0845 | 0.182 µM (active) | 0.0188 µM (active) | 0.145 µM (active) | 0.199 µM (active) | 0.0891 µM (active) | 0.169 µM (active) | 0.0526 µM (active) | 0.163 µM (active) | 0.179 µM (active) | 0.173 µM (active) | 1.26 µM (inactive) | 0.553 µM (active) | 0.179 µM (active) | 0.153 µM (active) | 0.299 µM (active) | 0.179 µM (active)
6 | COc1ccccc1Nc1nc(N)nc(N)c1N | > 100 µM (inactive) | 58.7 µM (inactive) | 48.2 µM (inactive) | 62.1 | > 100 µM (inactive) | 45.4 µM (inactive) | 72.6 µM (inactive) | 29.4 µM (inactive) | > 100 µM (inactive) | 18.1 µM (inactive) | > 100 µM (inactive) | 34.4 µM (inactive) | > 100 µM (inactive) | 54.1 µM (inactive) | > 100 µM (inactive) | > 100 µM (inactive) | > 100 µM (inactive) | 64.3 µM (inactive) | 60.3 µM (inactive) | 57.5 µM (inactive)
7 | CN1CCN(CCCCN2c3ccccc3Sc3ccc(N=[N+]=[N-])cc32)CC1 | 12.9 µM (inactive) | 7.29 µM (inactive) | 1.86 µM (inactive) | 7.36 | 15.2 µM (inactive) | 2.07 µM (inactive) | 7.91 µM (inactive) | 4.3 µM (inactive) | 14.3 µM (inactive) | 5.01 µM (inactive) | 9.55 µM (inactive) | 2.36 µM (inactive) | 5.16 µM (inactive) | 2.26 µM (inactive) | > 10 µM (inactive) | 13.4 µM (inactive) | 12.7 µM (inactive) | 4.95 µM (inactive) | 2.06 µM (inactive) | 2.08 µM (inactive)
8 | O=C1c2ccccc2C(=O)N1CCCCCCNOCCCN1C(=O)c2ccccc2C1=O | 32.4 µM (inactive) | 50.4 µM (inactive) | 38.7 µM (inactive) | 40.2 | 45.1 µM (inactive) | 36.6 µM (inactive) | 90.6 µM (inactive) | 57.5 µM (inactive) | > 100 µM (inactive) | 26.5 µM (inactive) | > 100 µM (inactive) | 14.4 µM (inactive) | 17.5 µM (inactive) | 15.4 µM (inactive) | 56.9 µM (inactive) | 78.3 µM (inactive) | 59 µM (inactive) | 63 µM (inactive) | 31.1 µM (inactive) | 19.5 µM (inactive)
9 | CN(C)/C=C1\CCc2ccc([N+](=O)[O-])cc2C1=O | > 100 µM (inactive) | > 100 µM (inactive) | 25.5 µM (inactive) | 44 | > 100 µM (inactive) | 24.3 µM (inactive) | > 100 µM (inactive) | 17.4 µM (inactive) | > 100 µM (inactive) | > 100 µM (inactive) | > 100 µM (inactive) | 27.4 µM (inactive) | > 100 µM (inactive) | 92.9 µM (inactive) | > 100 µM (inactive) | > 100 µM (inactive) | > 100 µM (inactive) | 75.7 µM (inactive) | 19.1 µM (inactive) | 24.5 µM (inactive)
10 | COC(=O)C[C@H](CCSC)NC(=O)C[C@H](CCSC)NC(=O)C[C@H](CCSC)NC(=O)OC(C)(C)C | 43.6 µM (inactive) | > 100 µM (inactive) | > 100 µM (inactive) | > 100 | 39.4 µM (inactive) | > 100 µM (inactive) | 56.2 µM (inactive) | 38.5 µM (inactive) | 41.7 µM (inactive) | 35.2 µM (inactive) | > 100 µM (inactive) | > 100 µM (inactive) | 16.1 µM (inactive) | 56.4 µM (inactive) | 20 µM (inactive) | 20.7 µM (inactive) | 19.1 µM (inactive) | 19.5 µM (inactive) | 68.5 µM (inactive) | 27.9 µM (inactive)
11 | Nc1ncnc2c1ncn2CCCNO | > 100 µM (inactive) | > 100 µM (inactive) | > 100 µM (inactive) | > 100 | > 100 µM (inactive) | > 100 µM (inactive) | > 100 µM (inactive) | > 100 µM (inactive) | > 100 µM (inactive) | > 100 µM (inactive) | > 100 µM (inactive) | > 100 µM (inactive) | > 100 µM (inactive) | > 100 µM (inactive) | > 100 µM (inactive) | > 100 µM (inactive) | > 100 µM (inactive) | > 100 µM (inactive) | > 100 µM (inactive) | > 100 µM (inactive)
12 | C=C1[C@@H](OC(C)=O)/C=C/C2C3C(=O)[C@@](C)(OC(C)=O)[C@H]([C@H](OC(C)=O)[C@]4(O)[C@@H](C)C(=O)O[C@H]4[C@H]1Cl)[C@@]23C (stereo not given in full) | > 100 µM (inactive) | > 100 µM (inactive) | > 100 µM (inactive) | > 100 | > 100 µM (inactive) | > 100 µM (inactive) | > 100 µM (inactive) | > 100 µM (inactive) | > 100 µM (inactive) | > 100 µM (inactive) | > 100 µM (inactive) | > 100 µM (inactive) | > 100 µM (inactive) | > 100 µM (inactive) | > 100 µM (inactive) | > 100 µM (inactive) | > 100 µM (inactive) | > 100 µM (inactive) | > 100 µM (inactive) | > 100 µM (inactive)
13 | COc1ccc(-c2nc3ccc(C)cc3o2)c(OC)c1 | 4.76 µM (inactive) | 29.8 µM (inactive) | 20.7 µM (inactive) | 22.5 | 26.8 µM (inactive) | 5.28 µM (inactive) | 20.8 µM (inactive) | 19.8 µM (inactive) | 30 µM (inactive) | 18.8 µM (inactive) | 14.9 µM (inactive) | 19.5 µM (inactive) | 22.5 µM (inactive) | 19.3 µM (inactive) | 41.5 µM (inactive) | 7.41 µM (inactive) | 27.4 µM (inactive) | 1.63 µM (inactive) | 17.7 µM (inactive) | 23.5 µM (inactive)
14 | NS(=O)(=O)c1ccc(/N=N/c2nc3nc(O)nc(O)c3[nH]2)cc1 | > 100 µM (inactive) | > 100 µM (inactive) | > 100 µM (inactive) | > 100 | > 100 µM (inactive) | > 100 µM (inactive) | > 100 µM (inactive) | > 100 µM (inactive) | > 100 µM (inactive) | > 100 µM (inactive) | > 100 µM (inactive) | > 100 µM (inactive) | > 100 µM (inactive) | > 100 µM (inactive) | > 100 µM (inactive) | > 100 µM (inactive) | > 100 µM (inactive) | > 100 µM (inactive) | > 100 µM (inactive) | > 100 µM (inactive)
